Broadly, the Ki is a measure of affinity in units of concentration, obtained from inhibition or displacement. By melting point is commonly meant the temperature of the solid-liquid transition.

Structures can show the parent of a compound that is named as a salt.

The values that follow come from patent publication US6395737B1, “Malonic acid derivatives, processes for their preparation, for their use and pharmaceutical compositions containing them” (Aventis Pharma Deutschland GmbH, priority 1999, dated 2002).

In one data set the target is T1, factor Xa (Homo sapiens, UniProt P00742).
T1 sequence (P00742 235-488 limits assumed): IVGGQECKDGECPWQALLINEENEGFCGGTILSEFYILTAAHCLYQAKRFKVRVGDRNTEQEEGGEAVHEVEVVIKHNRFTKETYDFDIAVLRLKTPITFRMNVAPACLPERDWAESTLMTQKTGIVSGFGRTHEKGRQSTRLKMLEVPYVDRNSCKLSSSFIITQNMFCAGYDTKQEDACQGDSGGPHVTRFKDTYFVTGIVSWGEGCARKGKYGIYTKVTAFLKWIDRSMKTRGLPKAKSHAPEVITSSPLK
T1 sequence (P00742 41-179 partner limits assumed): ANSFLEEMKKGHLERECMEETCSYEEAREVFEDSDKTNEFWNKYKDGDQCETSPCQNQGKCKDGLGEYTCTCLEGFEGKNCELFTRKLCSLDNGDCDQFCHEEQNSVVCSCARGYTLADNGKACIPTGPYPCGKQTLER
Assay: not given
As to conditions: cited from earlier work.
Consider “TAP: tick anticoagulant peptide, isolated from the tick Ornithodoros moubata, contains 60 amino acids; inhibitor of factor Xa (YNRLCIKPRDWIDECDSNEGGERAYFRNGKGGCDSFWICPEDHTGADYYSSYRDCFNACI; UniProt P17726 1-60, looked up)”, for which the inhibition constant (Ki) is ~0.5 nM.

Another data set concerns the target T1, factor Xa. The data set can be described thus: In vitro Factor Xa assay (Test 1a), chromogenic substrate S-2765. The format is biochemical. On the set-up: purchased Enzyme Research Laboratories, Inc; South Bend, Ind. The following applies: Factor Xa inhibitory activity; Ki from IC50 corrected for substrate competition; 0.5 nM enzyme, 140 μM S-2765, 25° C. The source says: The ability of a compound of formula I to inhibit factor Xa, thrombin, plasmin, elastase and trypsin may be assessed by determining the concentration of compound of formula I that inhibits enzyme activity by 50% (IC50). Purified enzymes are used in chromogenic assays. To determine the inhibition constant, the IC50 value is corrected for competition with substrate using the formula:
Ki=IC50×(1/{1+((substrate concentration)/substrate Km)})
where Km is the Michaelis-Menten-constant (Y.-C. Chen and W.H. Prusoff, Biochem. Pharmacol. 22: […] (1973), which is incorporated herein by reference).
TBS-PEG buffer (50 mM Tris-Cl, pH 7.8, 200 mM NaCl, 0.05% (w/v) PEG-8000, 0.02% (w/v) NaN3) is used for this assay. The IC50 is determined by combining in appropriate wells of a Costar half-area microtiter plate 25 μl human factor Xa (Enzyme Research Laboratories, Inc.; South Bend, Ind.) in TBS-PEG; 40 μl 10% (v/v) DMSO in TBS-PEG (uninhibited control) or various concentrations of the compound to be tested diluted in 10% (v/v) DMSO in TBS-PEG; and substrate S-2765 (N-benzyloxycarbonyl-D-Arg-Gly-L-Arg-p-nitroanilide; Kabi Pharmacia, Inc.; Franklin Ohio) in TBS-PEG.
The assays are performed by pre-incubating the compound of formula I plus enzyme for 10 min, then the assay is initiated by adding substrate to obtain a final volume of 100 μl. The initial velocity of chromogenic substrate hydrolysis is measured by the change in absorbance at 405 nm using a Bio-tek Instruments kinetic plate reader (Ceres UV900HDi) at 25° C. during the linear portion of the time course (usually 1.5 min after addition of substrate). The concentration of inhibitor that causes a 50% decrease in the rate of substrate hydrolysis is predicted by linear regression after plotting the relative rates of hydrolysis (compared to the uninhibited control) versus the log of the compound of formula I concentration. The enzyme concentration is 0.5 nM and substrate concentration is 140 μM.
With `N=C(N)NCCCC(NC(=O)C(NC(=O)C(Cc1ccc(C(=N)N)cc1)C(=O)N1CCCCC1)C1CCCCC1)C(N)=O` (single isomer, unassigned; more polar) [Example 28], the affinity corresponds to a Ki of 2000 nM.

Regarding `CN(C)C(=O)C(Cc1ccc(C(=N)N)cc1)C(=O)N[C@H](C(=O)NCC1CCC(C(=N)N)CC1)C1CCCCC1` (stereo partly drawn) [Example 116, 2-(4-Carbamimidoyl-benzyl)-N-{(S)-[(4-carbamimidoyl-cyclohexylmethyl)-carbamoyl]-cyclohexyl-methyl}-N′,N′-dimethyl-malonamide], the Ki turned out to be 2 nM.

The molecule `CN(C)C(=O)C(Cc1ccc(C(=N)N)cc1)C(=O)N[C@H](C(=O)NCCc1ccc(Cl)c(Cl)c1)C1CCCCC1` (mixture of isomers) [Example 59, 2-(R,S)-(4-Carbamimidoyl-benzyl)-N-{(S)-cyclohexyl-[2-(3,4-dichloro-phenyl)-ethylcarbamoyl]-methyl}-N′,N′-dimethyl-malonamide acetic acid salt] yielded a Ki of 5230 nM.

`CN(C)C(=O)C(Cc1ccc(C(=N)N)cc1)C(=O)N[C@H](C(=O)NCC1CCNCC1)C1CCCCC1` (mixture of isomers) [Example 47, 2-(R,S)-(4-Carbamimidoyl-benzyl)-N-{(S)-cyclohexyl-[(piperidin-4-ylmethyl)-carbamoyl]-methyl}-N′,N′-dimethyl-malonamide hydrochloric acid salt] came in with an inhibition constant (Ki) of 460 nM.

`CN(C)C(=O)C(Cc1ccc(C(=N)N)cc1)C(=O)NC(C(=O)NCc1cccc(C(N)=O)c1)C1CCCCC1` [Example 69, 2-(R,S)-(4-Carbamimidoyl-benzyl)-N-[((S)-3-carbamoyl-benzylcarbamoyl)-cyclohexyl-methyl]-N′,N′-dimethyl-malonamide hydrochloric acid salt] yielded a Ki of 780 nM.

In turn, `CN(C)C(=O)C(Cc1ccc(C(=N)N)cc1)C(=O)N[C@H](C(=O)NC(C(=O)N1CCCC1)c1ccc(NC(=N)N)cc1)C1CCCCC1` (mixture of isomers) [Example 96, 2-(R,S)-(4-Carbamimidoyl-benzyl)-N-{(S)-cyclohexyl-[1-(4-guanidino-phenyl)-2-oxo-2-pyrrolidin-1-yl-ethylcarbamoyl]-methyl}-N′,N′-dimethyl-malonamide hydrochloric acid salt] registered an inhibition constant Ki of 960 nM.

Molecule `CN(C)C(=O)C(Cc1ccc(C(=N)N)cc1)C(=O)N[C@H](C(=O)NCc1ccc(C(=N)N)cc1)C1CCCCC1` (mixture of isomers) [Example 4, 2-(R,S)-(4-Carbamimidoyl-benzyl)-N-[(4-carbamimidoyl-benzylcarbamoyl)-(S)-cyclohexyl-methyl]-N′,N′-dimethyl-malonamide Hydrochloric Acid Salt] registered a Ki of 6 nM.

`CCC(=N)N1CCC(CNC(=O)C(NC(=O)C(Cc2ccc(C(=N)N)cc2)C(=O)N(C)Cc2ccccc2)C2CCCCC2)CC1` (single isomer, unassigned; more polar) [Example 125] showed a Ki of 6 nM.

Take `CN(Cc1ccccc1)C(=O)[C@@H](Cc1ccc(C(=N)N)cc1)C(=O)N[C@H](C(=O)NCC1CCN(C(=N)N)CC1)C1CCCCC1` (single isomer, unassigned; less polar) [Example 112]: the affinity, expressed as Ki, was 1 nM.

Molecule `N=C(N)NCCC[C@H](NC(=O)[C@@H](NC(=O)C(Cc1ccc(C(=N)N)cc1)C(=O)N1CCOCC1)C1CCCCC1)C(N)=O` (mixture of isomers) [Example 41, 2-(S)-{2-(S)-[2-(R,S)-(4-Carbamimidoyl-benzyl)-3-morpholin-4-yl-3-oxo-propionyl-amino]-2-cyclohexyl-acetylamino}-5-guanidino-pentanoic acid amide trifluoroacetic acid salt] yielded an inhibitory constant (Ki) of 6.2 nM.

As for `CN(C)C(=O)[C@@H](Cc1ccc(C(=N)N)cc1)C(=O)N[C@H](C(=O)NCC1CCN(C(=N)N)CC1)C1CCCCC1` [Example 113, 2-(S)-(4-Carbamimidoyl-benzyl)-N-{(S)-[(1-carbamimidoyl-piperidin-4-ylmethyl)-carbamoyl]-cyclohexyl-methyl}-N′,N′-dimethyl-malonamide hydrochloric acid salt, less polar diastereomer], the affinity, expressed as Ki, was 3 nM.

In the case of `N=C(N)c1ccc(CNC(=O)[C@@H](NC(=O)C(Cc2ccc(C(=N)N)cc2)C(=O)NCc2ccccc2)C2CCCCC2)cc1` (single isomer, unassigned; less polar) [Example 101], affinity was put at a Ki of 37 nM.

In turn, `CC(=O)NCc1cccc(CNC(=O)[C@@H](NC(=O)C(Cc2ccc(C(=N)N)cc2)C(=O)N(C)C)C2CCCCC2)c1` (stereo partly drawn) [Example 67, N-{[(S)-3-(Acetylamino-methyl)-benzylcarbamoyl]-cyclohexyl-methyl}-2-(R,S)-(4-carbamimidoyl-benzyl)-N′,N′-dimethyl-malonamide trifluoroacetic acid salt] yielded a Ki of 260 nM.

Turning to `N=C(N)NCCC[C@H](NC(=O)[C@@H](NC(=O)C(Cc1ccc(C(=N)N)cc1)C(=O)N1CCCC1C(=O)O)C1CCCCC1)C(N)=O` (single isomer, unassigned; less polar) [Example 35], affinity was put at a Ki of 84 nM.

As to `CCOC(=O)C(Cc1cccc2ccccc12)NC(=O)[C@@H](NC(=O)C(Cc1ccc(C(=N)N)cc1)C(=O)N(C)Cc1ccccc1)C1CCCCC1` (single isomer, unassigned; more polar) [Example 107], the inhibitory constant (Ki) was determined as 2760 nM.

`N=C(N)NCCC[C@H](NC(=O)[C@@H](NC(=O)C(Cc1ccc(C(=N)N)cc1)C(=O)N1CCOCC1)c1ccccc1)C(N)=O` (mixture of isomers) [Example 23, 2-(S)-{2-(S)-[2-(R,S)-(4-Carbamimidoyl-benzyl)-3-morpholin-4-yl-3-oxo-propionyl-amino]-2-phenyl-acetylamino}-5-guanidino-pentanoic acid amide trifluoroacetic acid salt] returned an inhibition constant (Ki) of 13 nM.

The subject of the next data set is thrombin and factor Xa.
Assay: not given
The following applies: rate of inactivation, thrombin relative to factor Xa; cited from earlier work.
In the case of heparin, the “thrombin inactivated faster than factor Xa” value is listed as “approximately 100 times”.

Tested on in a further data set: not given
Assay: not given
Conditions: not given
For `CC(C)(C)OC(=O)N1CCN(CCNC(=O)[C@@H](NC(=O)C(Cc2ccc(C(=N)N)cc2)C(=O)NCc2ccccc2)C2CCCCC2)CC1.O=C(O)C(F)(F)F` (some centres unmarked), the melting point fell in the range of 125 to 128 °C.

As for `N=C(N)c1ccc(CC(C(=O)NCc2ccccc2)C(=O)N[C@H](C(=O)NCCN2CCNCC2)C2CCCCC2)cc1.O=C(O)C(F)(F)F` (some centres unmarked), the melting point is 196 °C (dec.).
